Oligonucleotides are written 5' to 3', each unit as a sugar letter and its base; * is a phosphorothioate linkage, no mark a phosphodiester; rarer units and linkages stand in square brackets, end groups in braces. Plain capitals give the bases only. {ppp} = triphosphate group; r = 2'-OH (RNA)
Columns and labels:
Format in all cases: cell-based
PDC = assay: IFN-α production in human PDC (ELISA); settings: 24 hours
Description: Human PBMC were prepared from whole blood donated by young healthy donors by Ficoll-Hypaque density gradient centrifugation (Biochrom, Berlin, Germany). PDC were isolated by MACS using the blood dendritic cell Ag (BCDA)-4 dendritic cell isolation kit from Miltenyi Biotec (Bergisch-Gladbach, Germany). Briefly, PDC were labelled with anti-BDCA-4 Ab coupled to colloidal paramagnetic microbeads and passed through a magnetic separation column twice (LS column, then MS column; Miltenyi Biotec). The purity of isolated PDC (lineage-negative, MHC-II-positive and CD123-positive cells) was above 95%. Before isolation of monocytes, PDC were depleted by MACS (LD column; Miltenyi Biotec) and then monocytes were isolated using the monocyte isolation kit II (Miltenyi Biotec). […] PDC cultures were additionally supplemented with 10 ng/ml IL-3 (R&D Systems). […] Vero (African green monkey kidney) and HEK 293T (human embryonic kidney) cells were maintained in Dulbecco's modified Eagle's medium supplemented with antibiotics and 5% or 10% foetal calf serum, respectively. BSR cells were propagated in Glasgow minimal essential medium supplemented with 10% newborn calf serum, phosphate broth, amino acids and antibiotics.
Human IFN-α was assessed in cell culture supernatants using the IFN-α module set (Bender MedSystems, Graz, Austria). The murine IP-10 ELISA was from Biosource (Solingen, Germany), the murine IFN-[…] ELISA was from PBL Biomedical Laboratories (Piscataway, USA). All ELISA procedures were performed, according to manufacturers' recommendations.

RIG-I = target: T1, RIG-I (Homo sapiens, UniProt O95786); assay: pIFN-beta-Luc reporter assay in HEK 293 cells transfected with RIG-I; design: Only HEK 293 cells expressing full length RIG-I responded to 5′triphosphate RNA; FLAG; expressed in transfected cells; host or cells: HEK 293; settings: HEK 293 cells expressing full length RIG-I, 200 ng, 24 hours
T1 sequence (O95786 1-925): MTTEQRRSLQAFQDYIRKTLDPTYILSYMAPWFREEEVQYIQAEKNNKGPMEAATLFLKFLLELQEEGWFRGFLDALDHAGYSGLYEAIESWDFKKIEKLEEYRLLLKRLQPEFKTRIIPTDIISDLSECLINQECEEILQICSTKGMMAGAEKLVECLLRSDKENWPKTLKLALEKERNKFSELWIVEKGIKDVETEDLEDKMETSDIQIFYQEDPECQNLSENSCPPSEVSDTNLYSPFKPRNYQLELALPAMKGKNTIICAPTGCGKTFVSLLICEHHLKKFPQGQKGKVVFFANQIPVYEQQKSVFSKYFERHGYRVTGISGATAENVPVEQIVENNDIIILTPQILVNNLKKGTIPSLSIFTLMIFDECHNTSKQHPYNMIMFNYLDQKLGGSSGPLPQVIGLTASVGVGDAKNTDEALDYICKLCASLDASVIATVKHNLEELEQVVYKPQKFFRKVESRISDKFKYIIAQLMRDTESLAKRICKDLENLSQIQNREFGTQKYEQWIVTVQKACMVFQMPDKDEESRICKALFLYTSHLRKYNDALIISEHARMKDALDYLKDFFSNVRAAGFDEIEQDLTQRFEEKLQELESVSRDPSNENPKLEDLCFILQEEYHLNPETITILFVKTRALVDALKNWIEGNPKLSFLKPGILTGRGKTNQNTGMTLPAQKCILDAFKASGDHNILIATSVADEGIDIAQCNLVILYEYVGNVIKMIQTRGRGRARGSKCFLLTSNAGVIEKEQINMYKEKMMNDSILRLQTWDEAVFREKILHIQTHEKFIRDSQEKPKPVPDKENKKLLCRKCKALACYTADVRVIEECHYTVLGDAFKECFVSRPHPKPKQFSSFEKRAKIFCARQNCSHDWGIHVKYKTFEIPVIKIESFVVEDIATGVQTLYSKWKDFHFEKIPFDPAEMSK

human primary monocytes = assay: IFN-α production in human primary monocytes transfected with RNA (ELISA); settings: for IFN-α production in monocytes: 200 ng RNA transfected, ELISA; for IFN-α-inducing activity conferred by the 5′ 4-nucleotide sequence: adenosine-initiated in vitro transcribed RNA oligonucleotides, FIG. 13; for IFN-α induction (*100%) mean: monocytes from three donors, 36 hours after transfection, normalized to the mean induction level of all oligonucleotides (=100%)

| Molecule | IFN-α-inducing activity conferred by the 5′ 4-nucleotide sequence (human primary monocytes) | IFN-α induction (*100%) mean (human primary monocytes) | further results |
| --- | --- | --- | --- |
| 5′-OHAGCUUAACCUGUCCUUCAA-3′ [synthetic isRNA9.2s, reference compound] | – | – | IFN-α production in PDC (PDC): produced IFN-α; IFN-β promoter reporter expression (RIG-I): did not respond |
| CCOCc1nc2c(N)nc3ccccc3c2n1CC(C)(C)O [R848, reference compound] | – | – | IFN-α production in monocytes (human primary monocytes; 24 hours): failed to produce IFN-α; IFN-α production in PDC (PDC): induce IFN-α in PDC |
| 5′-pppGGGGAUGAACUUCAGGGUCAGCUU-3′ ({ppp}-rGrGrGrGrArUrGrArArCrUrUrCrArGrGrGrUrCrArGrCrUrU) [tri-GFPa] | – | – | IFN-α production in monocytes (human primary monocytes; 24 hours): comparable levels of IFN-α; IFN-β promoter reporter expression (RIG-I): strongly activated reporter expression |
| aagcggggac acacacacac acacacacac (AAGCGGGGACACACACACACACACACACAC; RNA, 5' {ppp}, backbone not given here) [SEQ ID No. 157] | highest IFN-α-inducing activity | 1.22 *100% | – |
| aaccggggac acacacacac acacacacac (AACCGGGGACACACACACACACACACACAC; RNA, 5' {ppp}, backbone not given here) [SEQ ID No. 156] | highest IFN-α-inducing activity | 1.20 *100% | – |
| agcuggggac acacacacac acacacacac (AGCUGGGGACACACACACACACACACACAC; RNA, 5' {ppp}, backbone not given here) [SEQ ID No. 120] | – | 0.69 *100% | – |
| 5′-pppAACCUGUCCUUCAAUUACC-3′ [RNA9.2s-5A] | – | – | IFN-α production in monocytes (human primary monocytes; 24 hours): paralleled RNA9.2-0A |
| aaacggggac acacacacac acacacacac (AAACGGGGACACACACACACACACACACAC; RNA, 5' {ppp}, backbone not given here) [SEQ ID No. 154] | highest IFN-α-inducing activity | 1.15 *100% | – |
| aucaggggac acacacacac acacacacac (AUCAGGGGACACACACACACACACACACAC; RNA, 5' {ppp}, backbone not given here) [SEQ ID No. 160] | highest IFN-α-inducing activity | 1.24 *100% | – |
| agguggggac acacacacac acacacacac (AGGUGGGGACACACACACACACACACACAC; RNA, 5' {ppp}, backbone not given here) [SEQ ID No. 155] | highest IFN-α-inducing activity | 1.18 *100% | – |
| acggggggac acacacacac acacacacac (ACGGGGGGACACACACACACACACACACAC; RNA, 5' {ppp}, backbone not given here) [SEQ ID No. 145] | highest IFN-α-inducing activity | 1.03 *100% | – |
| acaaggggac acacacacac acacacacac (ACAAGGGGACACACACACACACACACACAC; RNA, 5' {ppp}, backbone not given here) [SEQ ID No. 142] | highest IFN-α-inducing activity | 1.01 *100% | – |
| 5′-pppGGGGCUGACCCUGAAGUUCAUCUU-3′ [tri-GFPs] | – | – | IFN-α production in monocytes (human primary monocytes; 24 hours): comparable levels of IFN-α; IFN-β promoter reporter expression (RIG-I): strongly activated reporter expression |
| aaauggggac acacacacac acacacacac (AAAUGGGGACACACACACACACACACACAC; RNA, 5' {ppp}, backbone not given here) [SEQ ID No. 146] | highest IFN-α-inducing activity | 1.04 *100% | – |
| aacuggggac acacacacac acacacacac (AACUGGGGACACACACACACACACACACAC; RNA, 5' {ppp}, backbone not given here) [SEQ ID No. 163] | highest IFN-α-inducing activity | 1.29 *100% | – |
| aguuggggac acacacacac acacacacac (AGUUGGGGACACACACACACACACACACAC; RNA, 5' {ppp}, backbone not given here) [SEQ ID No. 168] | highest IFN-α-inducing activity | 1.32 *100% | – |
| auucggggac acacacacac acacacacac (AUUCGGGGACACACACACACACACACACAC; RNA, 5' {ppp}, backbone not given here) [SEQ ID No. 144] | highest IFN-α-inducing activity | 1.03 *100% | – |
| agagggggac acacacacac acacacacac (AGAGGGGGACACACACACACACACACACAC; RNA, 5' {ppp}, backbone not given here) [SEQ ID No. 114] | – | 0.50 *100% | – |
| aaugggggac acacacacac acacacacac (AAUGGGGGACACACACACACACACACACAC; RNA, 5' {ppp}, backbone not given here) [SEQ ID No. 136] | – | 0.96 *100% | – |
| 5′-pppGCUUAACCUGUCCUUCAAU-3′ [RNA9.2s-1G] | – | – | reduction in IFN-α induction compared with RNA9.2s-0A (human primary monocytes; monocytes, 200 ng, 24 hours): approximately 25% |
| 5′-pppGGGGCUGACCCUGAAGUUCAUCUUCCC-3′ [27-mer] | – | – | IFN-α induction level (human primary monocytes; 24 hours after stimulation, five donors, mean±SEM): 5876 ± 1785 pg/mL |
| auguggggac acacacacac acacacacac (AUGUGGGGACACACACACACACACACACAC; RNA, 5' {ppp}, backbone not given here) [SEQ ID No. 153] | highest IFN-α-inducing activity | 1.15 *100% | – |

Reference: patent US9381208B2, “Structure and use of 5′ phosphate oligonucleotides” (Rheinische Friedrich-Wilhelms-Universität, priority 2006, dated 2016)
